Values joined by “and” are separate entries in the source; they are usually repeats but may differ in a detail not shown here. Equal entries are not always repeated.
Assays:
[1] = Photophysical properties (absorbance, emission, extinction coefficient, quantum yield); assay type: physicochemical; settings: for λabs: maximum absorbance
[2] = test system: K562 cells; assay: Trypan blue cytotoxicity / viability assay; assay type: cell-based; settings: K562 cells; 6, 12 and 24 hours
Procedure: K562 cells were plated in a 96-well plate with 50,000 cells per well. Each well was filled to a final volume of 100 μL IMDM media with 0.25% DMSO. Wells were tested using red-AlDeSense or Ctrl-red-AlDeSense (1 μM and 5 μM each) or using a DMSO control. After 6-, 12-, and 24-hour incubation periods at 37° C. and 5% CO2, a 10 μL sample was removed from each condition and combined with 10 μL 0.4% w/v trypan blue in PBS. Samples were incubated for 3 minutes at room temperature before being loaded on a hemocytometer where live and dead cells were counted. Conditions were tested in triplicate for each time point. Samples were analyzed on an EVOS digital inverted microscope using transmitted white light for brightfield imaging and the Cy5 filter cube for trypan blue visualization.
K562 cells were plated in a 96-well plate at a density of 500,000 cells/mL in full IMDM media supplemented with either 1 μM or […] AlDeSense AM. Equivalent samples were supplemented with 1 μM or […] as a vehicle control. At 6, 12, and 24 hours, a 10 μL sample was removed from each of the samples and mixed 1:1 with a 0.4% wt/volume trypan blue solution in PBS. Samples were incubated for 1 minute at room temperature before being loaded onto a hemocytometer where live and dead cells were counted. Each sample was made in triplicate for each time point.

[3] = molecular target: T1, ALDH1A3 (Homo sapiens, UniProt P47895); assay: ALDH isoform selectivity of red probes: ALDH1A3; assay type: biochemical
T1 construct: made in house
T1 sequence (P47895 1-512): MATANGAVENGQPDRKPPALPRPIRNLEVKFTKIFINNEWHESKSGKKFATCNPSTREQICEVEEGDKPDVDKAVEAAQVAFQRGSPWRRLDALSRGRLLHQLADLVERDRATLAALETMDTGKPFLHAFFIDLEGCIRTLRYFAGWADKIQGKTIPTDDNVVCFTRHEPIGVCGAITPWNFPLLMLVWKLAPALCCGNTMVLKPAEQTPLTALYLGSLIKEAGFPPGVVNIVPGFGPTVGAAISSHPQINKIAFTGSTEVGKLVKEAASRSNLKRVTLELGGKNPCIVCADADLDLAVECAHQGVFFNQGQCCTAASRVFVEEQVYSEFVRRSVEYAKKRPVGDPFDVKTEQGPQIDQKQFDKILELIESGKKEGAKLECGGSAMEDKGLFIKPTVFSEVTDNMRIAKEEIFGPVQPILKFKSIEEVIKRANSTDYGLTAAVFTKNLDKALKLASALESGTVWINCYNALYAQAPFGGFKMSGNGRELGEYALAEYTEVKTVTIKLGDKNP
Procedure: Each ALDH isoform was added to a 50 mM triethanolamine solution (pH 7.4) containing 2.0 mM NAD^+ and 100 μM substrate at room temperature. Benzaldehyde was the substrate for ALDH3A1. Propanal was the substrate for all other isoforms. ALDH isoform activity was determined by monitoring the rate of NADH production through the increase in absorbance at 340 nm (ε=6220 M^−1cm^−1). For these assays, 1 unit is defined as the amount of enzyme that catalyzes the conversion of […] per minute. For every combination of dye and enzyme, 2 μM dye was preincubated with 2.0 mM NAD^+ in 50 mM triethanolamine solution (pH 7.4). The reaction was initiated by addition of 1 unit of ALDH. Dyes were excited at 590 nm, and fluorescence was measured continuously at 610 nm.

[4] = test system: K562 cells; assay: Flow cytometry of K562 cells with red-AlDeSense; assay type: cell-based, human; settings: 1 μM dye
Procedure: For all cell lines, 200,000 cells in a single-cell suspension were transferred into 1.5 mL Eppendorf tubes. Cells were pelleted by centrifugation at 400 g for 5 minutes at room temperature. After removing the supernatant by aspiration, cells were resuspended in 300 μL premixed PBS supplemented with verapamil, probenecid, and novobiocin. […] Samples were immediately stored on ice. Cells were stained with red-AlDeSense or Ctrl-red-AlDeSense (100 μL of 4 μM dye solution; dyes were normalized by fluorescence spectroscopy). Samples were analyzed on a BD LSR II Flow Cytometry Analyzer using a 488 nm laser and a 550 LP and 610/30 filter set. Samples were analyzed every 5 minutes for 15 minutes, with the samples being placed back on ice between data collection. Data were analyzed on FCS Express 6.04.

[5] = physchem
Procedure: The fluorescence of 1 μM of each compound was measured in 40 mM Britton-Robinson buffer at pH 2-9 in 0.5 pH intervals. Each measurement was performed in triplicate. […] Error bars are ±standard deviation (SD).

[6] = Response to reactive species, biological thiols and amines (chemostability)
Procedure: (e) Response of AlDeSense to various reactive oxygen species, biological thiols, and amines at concentrations of 100 μM (GSH was tested at 1 mM). For all assays, AlDeSense was used at 1 μM final concentration.
All assays were performed in 50 mM triethanolamine buffer red-AlDeSense was used at 2 μM. Enzyme concentrations affording 1 nmol substrate/minute were used. Reactive species were tested at 100 μM, except glutathione which was at 1 mM.

[7] = test system: MDA-MB-231 mammospheres; assay: Mammosphere culture and imaging; assay type: cell-based; settings: 2 μM dye
Procedure: Mammosphere formation from MDA-MB-231 breast cancer cells was performed as described previously with some modifications. Cells were resuspended and diluted to a density of 2000 cells/mL in DMEM/F12 (Sigma-Aldrich) supplemented with 2% B27 supplement (Thermo Fisher), 40 ng/mL rhFGF-2 (Miltenyi Biotec), and 20 ng/mL rhEGF (Gibco®). They were plated in ultra-low attachment 6-well plates (Corning) and incubated at 37° C. and 5% CO2 for 5 days or until most mammospheres were between […]. At this point, the mammospheres were transferred to a 4-well chamber slide coated with Poly-L-lysine as described previously. The mammospheres were then either immediately imaged with AlDeSense or Ctrl-AlDeSense, or the media was exchanged with full DMEM media supplement with 10% FBS and non-essential amino acids to allow differentiation over 36 hours.
At various time points, the mammospheres were stained with 2 μM AlDeSense or Ctrl-AlDeSense as described above. Staining continued for 1 h at room temperature before imaging with a wide field fluorescence microscope (Zeiss Axiovert 200M). A GFP filter set was used to excite the fluorophores. Exposure times were set equally for all images taken within a data set and configured to give low signal in Ctrl-AlDeSense stained tumorspheres. Only mammospheres greater than 50 μm in diameter were considered in the analysis.

Compound | bathochromic shift in absorbance and emission compared to AlDeSense [1] [nm] | maximum emission (λem) [1] [nm] | Quantum Yield ([1]; Probes 1-8) | λabs [1] [nm] | toxicity in cell viability assay [2] | selectivity ALDH1A1 versus ALDH1A3 [3] | Enzyme Activity 1A3 ([3]; Table 2) | K562 cells with high ALDH1A1 activity [4] [%] | pKa [5] | chemostability across reactive oxygen, nitrogen and sulfur species ([6]; species 100 μM, glutathione 1 mM, 2 μM red-AlDeSense) | ε [1] [M⁻¹ cm⁻¹] | λcm ([1]; Table 1) [nm] | ΔE00 ([1]; at 503 nm, intersecting wavelength of normalized absorbance and emission) [eV] | ΦF ([1]; prior to activation) | brightness of mammospheres versus Ctrl-AlDeSense [7] [fold] | response to thiols and amines ([6]; 100 μM (GSH 1 mM), 1 μM AlDeSense) | response to panel of reactive oxygen species ([6]; 100 μM species, 1 μM AlDeSense)
Cc1cc(C=O)c(F)c(F)c1C1=C2C=CC(=O)C=C2[Si](C)(C)c2cc(O)ccc21 | 100 | 614 | 0.21 | 594 | nontoxic | selective for ALDH1A1 over ALDH1A3 | Low | 39.0±8.3 | 6.68 | only ALDH1A1 elicited turnover |  |  |  |  |  |  | 
Cc1cc(C=O)ccc1-c1c2cc(F)c(=O)cc-2oc2cc(O)c(F)cc12 [AlDeSense] |  |  |  | 496 | non-toxic |  |  |  |  |  | 61000 | 516 | 2.46 | 0.04 and 0.041 | 3 | did not detect formation of fluorescent hemithioacetal and Schiff base products | did not observe any oxidized fluorescent products

— patent publication US11407725B2 (The Board of Trustees of the University of Illinois, priority 2018, dated 2022)
